Test results: PubChem BioAssay (NCI)
Where “and” joins values, the source holds several entries; their conditions need not be identical. Equal values may be shown once.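 Dose response: 5 concentrations. Exposure: 48 h. Format: 96-well plates. Endpoint: linear interpolation; highest concentration if not reached. GI50 = concentration required for 50% inhibition of growth. At the TGI there is no net growth.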

Columns and labels:
Assay in all cases: growth of human tumour cells (NCI), 48 h
SNB-75 CNS = tested on: SNB-75 CNS
K-562 leukemia = tested on: K-562 leukemia
RXF 393 renal = tested on: RXF 393 renal
MCF7 breast = tested on: MCF7 breast
OVCAR-3 ovarian = tested on: OVCAR-3 ovarian
HS 578T breast = tested on: HS 578T breast
SK-MEL-28 melanoma = tested on: SK-MEL-28 melanoma
LOX IMVI melanoma = tested on: LOX IMVI melanoma
A498 renal = tested on: A498 renal
ACHN renal = tested on: ACHN renal

SMILES	GI50 (SNB-75 CNS)	TGI (SNB-75 CNS)	GI50 (K-562 leukemia)	TGI (K-562 leukemia)	GI50 (RXF 393 renal)	TGI (RXF 393 renal)	GI50 (MCF7 breast)	TGI (MCF7 breast)	GI50 (OVCAR-3 ovarian)	TGI (OVCAR-3 ovarian)	GI50 (HS 578T breast)	TGI (HS 578T breast)	GI50 (SK-MEL-28 melanoma)	TGI (SK-MEL-28 melanoma)	GI50 (LOX IMVI melanoma)	TGI (LOX IMVI melanoma)	GI50 (A498 renal)	TGI (A498 renal)	GI50 (ACHN renal)	TGI (ACHN renal)
CCC1CCc2nc3sc(C(=O)Nc4ccccc4F)c(N)c3cc2C1 (configuration not stated)	2.16 µM	> 100 µM	0.402 µM	> 100 µM	1.18 µM	> 100 µM	0.318 µM	> 100 µM	0.454 µM	8.98 µM	2.13 µM	> 100 µM	11.3 µM	> 100 µM	7.66 µM	> 100 µM	0.0575 µM	0.689 µM	> 100 µM	> 100 µM
O=C(OC(C(=O)O)C(OC(=O)c1ccccc1)C(=O)O)c1ccccc1 (configuration not stated) (tested in a mixture with another compound)		> 100 µM and 56 µM		> 100 µM		> 100 µM		> 100 µM		> 69.1 µM		64.8 µM		> 100 µM		> 100 µM and 44.6 µM		> 100 µM		> 100 µM
C=C(C)C(=O)NC(N)=NC#N	154 µM	289 µM		51.5 µM and 58.5 µM	63 µM	65.7 µM and 200 µM	109 µM	248 µM	129 µM	259 µM		797 µM	75 µM	> 56.9 µM and 205 µM	28.6 µM	96 µM	201 µM	> 46.4 µM and 345 µM	68 µM	271 µM
O=c1[nH]cnc2c(C3OC(CO)C(O)C3O)[nH]nc12 (configuration not stated)		> 100 µM		> 100 µM		> 100 µM		> 100 µM		53.5 µM		> 100 µM		> 100 µM		> 100 µM		> 100 µM		> 100 µM
N=c1nc(N)c2cc3c(N)nc(=N)c3cc12		42.6 µM		9.57 µM		25.3 µM		> 100 µM		75.2 µM		> 100 µM		10.7 µM		> 52.2 µM		> 90.6 µM		> 100 µM
Nc1ccccc1NC(=O)c1ccc(CSc2nc(N3CCOCC3)c3cccn3n2)cc1	0.32 µM	15.6 µM	0.312 µM	> 100 µM	0.464 µM	2.51 µM	0.335 µM	> 100 µM	1.05 µM	6.73 µM	0.781 µM	> 100 µM	1 µM	31.3 µM	0.49 µM	3.22 µM	1.09 µM	5.34 µM	0.863 µM	> 100 µM
CC1(C)SC2C(C(=O)O)N=C(Cc3ccccc3)N2C1C(=O)O (configuration not stated)		49.2 µM		> 100 µM		> 100 µM		> 100 µM		> 100 µM		95.7 µM		> 100 µM		60.5 µM		> 100 µM		> 100 µM
CN1CCN(C(=O)c2ccc(NC(=O)Nc3ccc(N(C)c4ccnc(Nc5ccc(CS(C)(=O)=O)cc5)n4)cc3)cc2)CC1	12.7 µM	> 25 µM	12.6 µM	> 25 µM	24.2 µM	> 25 µM	7.41 µM	> 25 µM	7.44 µM	> 19.4 µM	4.62 µM	> 22.1 µM	> 25 µM	> 25 µM	10 µM	> 25 µM	> 25 µM	> 25 µM	> 25 µM	> 25 µM
O=C(O)C1C2C=CC(O2)C1C(=O)Nc1ccccc1 (configuration not stated)		> 100 µM		> 100 µM		> 100 µM		> 100 µM		> 100 µM		> 100 µM		> 100 µM		> 100 µM		> 100 µM		> 100 µM
COc1cc2c(c(OC)c1OC)-c1ccc([O-])c(=O)cc1[C@@H](NC(C)=O)CC2.COc1cc2c(c(OC)c1OC)-c1ccc([O-])c(=O)cc1[C@@H](NC(C)=O)CC2.[Cu+2]	5.39 µM	> 100 µM	2.48 µM	> 100 µM	3.87 µM	> 100 µM	3.33 µM	> 100 µM	2.16 µM	5.19 µM	1.94 µM	> 100 µM	7.82 µM	> 100 µM	4.3 µM	> 100 µM	2.41 µM	8.53 µM	7.83 µM	> 100 µM
CNC(=O)c1ccc(Nc2ncc(C(F)(F)F)c(NCc3nccnc3N(C)S(C)(=O)=O)n2)cc1	1.52 µM and 1.41 µM	4.9 µM	4.84 µM and 3.2 µM and 3.42 µM	> 10 µM and 17.7 µM and > 61.1 µM	0.637 µM and 1.39 µM and 0.575 µM	2.74 µM and 3.76 µM and 2.85 µM	1.79 µM and 2.16 µM and 1.88 µM	> 10 µM and 9.76 µM and 11.4 µM	3.16 µM and 2.26 µM and 2.71 µM	> 10 µM and 8.43 µM and 12.8 µM	0.283 µM and 2.44 µM and 1.5 µM	7.19 µM and 9.3 µM and 8.29 µM	3.96 µM and 2.88 µM and 2.64 µM	> 10 µM and 9.49 µM and 9.43 µM	2.1 µM and 2.06 µM and 2.02 µM	> 10 µM and 8.03 µM and 8.91 µM	2.02 µM and 1.59 µM and 1.39 µM	5.61 µM and 3.89 µM and 4.18 µM	1.67 µM and 1.77 µM and 1.5 µM	> 10 µM and 9.44 µM and 8.18 µM
Cc1cc(NC(=O)c2ccc(NS(=O)(=O)CCO)cc2N2CCC3(CC2)CC3)nc(N2CCC(F)(F)CC2)n1	1.15 µM	15.6 µM	3.59 µM	> 51.4 µM	0.26 µM	6.58 µM	8.33 µM	25.2 µM	0.0365 µM	2.49 µM	0.746 µM	21.9 µM	16.8 µM	30.7 µM	7.05 µM	27.3 µM	16.7 µM	31 µM	13.5 µM	26.4 µM
CCCCCCCCCCCCCOC(=O)c1c(C)[nH]c(/C=C2\N=C(c3ccc[nH]3)C=C2OC)c1C	0.919 µM	10.9 µM	0.0392 µM	> 100 µM	0.465 µM	10.5 µM	0.0248 µM	> 100 µM	0.227 µM	15.5 µM	0.0853 µM	5.47 µM	0.994 µM	> 52.6 µM		0.0223 µM	0.481 µM	10.8 µM	0.139 µM	12.5 µM
